Measurements: ChEMBL document CHEMBL6115010, “Targeting glioma with heteroaromatic alkaloids: A review of potential therapeutics” (Bioorg Med Chem, 2025)
In brackets after ≈: the same amount, converted by molar mass.

Key:
U-87 MG [1] = test: Antiproliferative activity against human U-87 MG cells assessed as reduction in cell growth incubated for 72 hrs by MTS assay; type: functional, cell-based, U-87MG ATCC
T98G = test: Antiproliferative activity against human T98G cells assessed as reduction in cell growth incubated for 72 hrs by MTS assay; type: functional, cell-based
[2] = Antiproliferative activity against human GSC#1 cells assessed as reduction in cell growth incubated for 72 hrs by MTS assay; type: functional, cell-based; conditions: GSC#1, 72 h
U-87 MG [3] = test: Cytotoxicity against human U-87 MG cells assessed as reduction in cell viability in presence of Jerantinine B incubated for 72 hrs by neutral red uptake assay; type: functional, cell-based, U-87MG ATCC
MRC5 = test: Cytotoxicity against human MRC5 cells assessed as reduction in cell viability incubated for 72 hrs by neutral red uptake assay; type: functional, cell-based; conditions: MRC5, 72 h
U-87 MG [4] = test: Cytotoxicity against human U-87 MG cells assessed as reduction in cell viability incubated for 72 hrs by neutral red uptake assay; type: functional, cell-based, U-87MG ATCC
U-87 MG [5] = test: Synergistic antiproliferative activity against human U-87 MG cells assessed as combination index at 10 uM incubated for 48 hrs in presence of 1.5 microg/ml Delta-Tocotrienol; type: functional, U-87MG ATCC
U-87 MG [6] = test: Cytotoxicity against human U-87 MG cells assessed as reduction in cell viability in presence of Delta-Tocotrienol incubated for 72 hrs by neutral red uptake assay; type: functional, cell-based, U-87MG ATCC
[7] = Cytotoxicity against human U373 MG cells by MTT assay; type: functional, cell-based, U-373MG ATCC
Hs 683 = test: Cytotoxicity against human Hs 683 cells by MTT assay; type: functional, cell-based
U-251 [8] = test: Growth inhibition of human U-251MG cells measured for 48 hrs by SRB assay; type: functional
SH-SY5Y = test: Cytotoxicity against human SH-SY5Y cells measured for 48 hrs by SRB assay; type: functional, cell-based
[9] = Induction of apoptosis in human U373 MG cells at 1 uM relative to control; type: functional, U-373MG ATCC
[10] = Cytotoxicity against human U-343MG cells; type: functional, cell-based
[11] = Antiproliferative activity against human U373 MG cells assessed as reduction in cell growth measured for 72 hrs by MTT assay; type: functional, cell-based, U-373MG ATCC
U-251 [12] = test: Cytotoxicity against human U-251MG cells assessed as reduction in cell growth measured for 48 hrs by MTT assay; type: functional, cell-based; conditions: U-251, 48 h
U-251 [13] = test: Antitumor activity against human U-251MG cells xenografted in BALB/c nude mouse assessed as reduction in tumor growth at 8 mg/kg, ip administered once daily and measured after 28 days relative to control; type: functional; conditions: U-251, 672 h, time 28 day, read-out: TGI
U-251 [14] = test: Antitumor activity against human U-251MG cells xenografted in BALB/c nude mouse assessed as reduction in tumor growth at 4 mg/kg, ip administered once daily and measured after 28 days relative to control; type: functional; conditions: U-251, 672 h, time 28 day, read-out: TGI
U-87 MG [15] = test: Cytotoxicity against human U-87 MG cells assessed as reduction in cell growth measured for 48 hrs by MTT assay; type: functional, cell-based, U-87MG ATCC

SMILES: CC[C@]12C=CC(CC(C)=O)N3CC[C@]4(C(=C(C(=O)OC)C1)Nc1ccccc14)[C@@H]32 (some centres undefined)
- IC50 (U-87 MG [1]): 1.7 µM
- IC50 (T98G): 4.3 µM
- IC50 [2]: 1.3 µM

SMILES: CC[C@@]12CC(C(=O)OC)=C3Nc4cc(OC)c(O)cc4[C@@]34CCN(C[C@@H]3O[C@@H]31)[C@@H]24 [JERANTININE B]
- IC50 (U-87 MG [3]): 0.74 µg/mL
- IC50 (MRC5): 2.83 µg/mL (≈ 7.1 µM)
- IC50 (U-87 MG [4]): 0.74 µg/mL (≈ 1.86 µM)
- CI (U-87 MG [5]): 0.85
- IC50 (U-87 MG [6]): 0.19 µg/mL

SMILES: CC(C)[C@@]12NC(=O)[C@@H](Cc3c1[nH]c1ccccc31)n1c2nc2ccccc2c1=O
- IC50 [7]: 44 µM
- IC50 (Hs 683): 50 µM

SMILES: C/C=C1/CN2C3C[C@H]1[C@H](CO)[C@@H]2Cc1c3n(C)c2ccccc12
- GI50 (U-251 [8]): 9.5 µM

SMILES: OCc1ccc(-c2nccc3c2[nH]c2ccccc23)o1 [PERLOLYRIN]
- IC50 (SH-SY5Y): 23.9 µM

SMILES: C=C[C@H]1CN2CCc3c([nH]c4c([C@@H]5CCCN5C)c(O)ccc34)[C@@H]2C[C@@H]1C[C@H]1c2[nH]c3ccccc3c2CCN1C
- Activity [9]: 80%
- IC50 [10]: ~1 µM

SMILES: O=C1NC(=O)c2c1c1[nH]cnc1c1[nH]c3ccccc3c21 [GRANULATIMIDE]
- IC50 [11]: 6 µM

SMILES: c1ccc2c(c1)[nH]c1c2cc[n+]2cc3c(cc12)CCCC3
- IC50 (U-251 [12]): 4.98 µM
- inhibition in vivo at 8 mg/kg (U-251 [13]): 58.9%
- inhibition in vivo at 4 mg/kg (U-251 [14]): 49.5%
- IC50 (U-87 MG [15]): 4.71 µM
